Laboratory results as given in patent US12077503B2, “Substituted cyclic amides and their use as herbicides” (FMC CORPORATION, priority 2015, dated 2024).

Assays:
Type in all cases: in vivo
rice (Oryra sativa) = assay: Test B flooded paddy test; settings: Flood, 0 to 100 scale where 0 is no effect and 100 is complete control, 13 to 15 d
Summary of the method: (§1)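 Flooding to 3 cm over soil accompanied treatment, which consisted of adding compound to the standing water around 2-leaf plants; depth was then maintained. Visual assessment versus controls followed at 13 to 15 d (scale 0–100, 0 meaning no effect).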

[1] = tested on: sedge, umbrella (small-flower umbrella sedge, Cyperus difformis); assay: Test B flooded paddy test; settings: Flood, 0 to 100 scale where 0 is no effect and 100 is complete control, 13 to 15 d
Summary of the method: as §1

[2] = tested on: barnyardgrass (Echinochloa crus-galli); assay: Test B flooded paddy test; settings: Flood, 0 to 100 scale where 0 is no effect and 100 is complete control, 13 to 15 d
Summary of the method: as §1

[3] = tested on: ducksalad (Heteranthera limosa); assay: Test B flooded paddy test; settings: Flood, 0 to 100 scale where 0 is no effect and 100 is complete control, 13 to 15 d
Summary of the method: as §1

[4] = tested on: waterhemp (common waterhemp, Amaranthus rudis); assay: Test C preemergence; settings: for Plant response rating (scale of 0 to 100), Waterhemp: 31 g ai/ha, 0 is no effect, 100 is complete control; for Plant response rating, Waterhemp: scale 0 to 100, 0 no effect, 100 complete control
Description: Seeds of plant species selected from blackgrass (Alopecurus myosuroides), ryegrass, Italian (Italian ryegrass, Lolium multiflorum), wheat (winter wheat, Triticum aestivum), Galium (catchweed bedstraw, Galium aparine), corn (Zea mays), crabgrass, large (large crabgrass, Digitaria sanguinalis), foxtail, giant (giant foxtail, Setaria faberii), johnsongrass (Sorghum halepense), lambsquarters (Chenopodium album), morningglory (Ipomoea coccinea), nutsedge, yellow (yellow nutsedge, Cyperus esculentus), pigweed (Amaranthus retroflexus), ragweed (common ragweed, Ambrosia elatior), soybean (Glycine max), barnyardgrass (Echinochloa crus-galli), oilseed rape (Brassica napus), waterhemp (common waterhemp, Amaranthus rudis) and velvetleaf (Abutilon theophrasti) were planted into a blend of loam soil and sand and treated preemergence with test chemicals formulated in a non-phytotoxic solvent mixture which included a surfactant.
At the same time, plants selected from these crop and weed species and also Kochia (Kochia scoparia), oat, wild (wild oat, Avena fatua), and chickweed (common chickweed, Stellaria media) were planted in pots containing Sunshine Redi-Earth® planting medium comprising spaghnum peat moss, vermiculite, starter nutrients and dolomitic limestone and treated with postemergence applications of test chemicals formulated in the same manner. Plants ranged in height from 2 to 18 cm (1- to 4-leaf stage) for postemergence treatments. Treated plants and controls were maintained in a greenhouse for 13 to 15 d, after which time all species were compared to controls and visually evaluated. Plant response ratings, summarized in Table C, are based on a scale of 0 to 100 where 0 is no effect and 100 is complete control. A dash (-) response means no test result.

[5] = tested on: ryegrass, Italian (Italian ryegrass, Lolium multiflorum); assay: Test A preemergence
Summary of the method: (§2)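 Compounds were formulated in a non-phytotoxic solvent mixture with surfactant and applied as a preemergence directed soil spray after seeding, or sprayed postemergence over plants 2 to 10 cm tall at the one- to two-leaf stage. Evaluation after about 10 d compared treated with untreated controls, using a scale from 0 (no effect) to 100 (complete control).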

[6] = tested on: giant foxtail (Setaria faberii); assay: Test A preemergence
Summary of the method: as §2

[7] = tested on: ragweed (common ragweed, Ambrosia elatior); assay: Test A preemergence
Summary of the method: as §2

[8] = tested on: pigweed (Amaranthus retroflexus); assay: Test A preemergence
[9] = tested on: barnyardgrass (Echinochloa crus-galli); assay: Test A preemergence
Summary of the method: as §2

Kochia (Kochia scoparia) [10] = assay: Test A preemergence
Summary of the method: as §2

[11] = tested on: ryegrass, Italian (Italian ryegrass, Lolium multiflorum); assay: Test A postemergence
Summary of the method: as §2

[12] = tested on: giant foxtail (Setaria faberii); assay: Test A postemergence
Summary of the method: as §2

[13] = tested on: ragweed (common ragweed, Ambrosia elatior); assay: Test A postemergence
Summary of the method: as §2

corn (Zea mays) = assay: Test A postemergence
Summary of the method: as §2

[14] = tested on: pigweed (Amaranthus retroflexus); assay: Test A postemergence
Summary of the method: as §2

[15] = tested on: wheat (Triticum aestivum); assay: Test A postemergence
Summary of the method: as §2

[16] = tested on: barnyardgrass (Echinochloa crus-galli); assay: Test A postemergence
Summary of the method: as §2

[17] = tested on: blackgrass (Alopecurus myosuroides); assay: Test A postemergence
Summary of the method: as §2

[18] = tested on: Galium (catchweed bedstraw, Galium aparine); assay: Test A postemergence
Summary of the method: as §2

Kochia (Kochia scoparia) [19] = assay: Test A postemergence
Summary of the method: as §2

[20] = 125 g ai/ha, Preemergence, visual injury after approximately 10 d, 0 to 100 scale where 0 is no effect and 100 is complete control
[21] = 500 g ai/ha, preemergence, 0 to 100 scale, 0 = no effect, 100 = complete control
[22] = 125 g ai/ha, postemergence, visual rating after approx. 10 d, 0 to 100 scale (0 no effect, 100 complete control)
[23] = 500 g ai/ha, postemergence, visual injury, 0 to 100 scale (0 no effect, 100 complete control), approx. 10 d
[24] = Preemergence, 500 g ai/ha, visual injury approx. 10 d
[25] = 125 g ai/ha, postemergence, visual injury rating on 0 to 100 scale (0 no effect, 100 complete control), approx. 10 d
[26] = Postemergence, 500 g ai/ha, 0 to 100 scale where 0 is no effect and 100 is complete control
[27] = 125 g ai/ha, preemergence, visual rating after approx. 10 d, 0 to 100 scale where 0 is no effect and 100 is complete control
[28] = 125 g ai/ha, postemergence, visual injury after approximately 10 d, 0 to 100 scale (0 no effect, 100 complete control)

SMILES: CN1CC(c2cc(F)cc(F)c2)C(C(=O)Nc2ccc(F)c(F)c2F)C1=O (stereo not drawn) [Compound 646]
- Plant response rating, Rice (rice (Oryra sativa); 250 g ai/ha): 25
- Plant response rating, Sedge, Umbrella ([1]; 250 g ai/ha): 0
- Plant response rating, Barnyardgrass ([2]; 250 g ai/ha): 80
- Plant response rating, Ducksalad ([3]; 250 g ai/ha): 98
- Plant response rating (scale of 0 to 100), Waterhemp [4]: 65
- Plant response rating, Waterhemp ([4]; 62 g ai/ha): 60
- Plant response rating, Waterhemp ([4]; 125 g ai/ha): 75
- Plant response rating, Waterhemp ([4]; 250 g ai/ha): 85
- Plant response rating, Ryegrass, Italian [5, 20]: 60
- Plant response rating, Ryegrass, Italian [5, 21]: 90
- Plant response rating, Foxtail, Giant [6, 20]: 90
- Plant response rating, Foxtail, Giant [6, 21]: 100
- Plant response rating, Ragweed [7, 20]: 60
- Plant response rating, Ragweed [7, 21]: 70
- Plant response rating, Pigweed [8, 20]: 60
- Plant response rating, Pigweed [8, 21]: 70
- Plant response rating, Barnyardgrass [9, 20]: 90
- Plant response rating, Barnyardgrass [9, 21]: 90
- Plant response rating, Kochia (Kochia (Kochia scoparia) [10]; [20]): 60
- Plant response rating, Kochia (Kochia (Kochia scoparia) [10]; [21]): 70
- Plant response rating, Ryegrass, Italian [11, 22]: 60
- Plant response rating, Ryegrass, Italian [11, 23]: 70
- Plant response rating, Foxtail, Giant [12, 22]: 90
- Plant response rating, Foxtail, Giant [12, 23]: 90
- Plant response rating, Ragweed [13, 22]: 0
- Plant response rating, Ragweed [13, 23]: 40
- Plant response rating, Corn (corn (Zea mays); [22]): 70
- Plant response rating, Corn (corn (Zea mays); [23]): 80
- Plant response rating, Pigweed [14, 22]: 20
- Plant response rating, Pigweed [14, 23]: 20
- Plant response rating, Wheat [15, 22]: 40
- Plant response rating, Wheat [15, 23]: 70
- Plant response rating, Barnyardgrass [16, 22]: 90
- Plant response rating, Barnyardgrass [16, 23]: 90
- Plant response rating, Blackgrass [17, 22]: 70
- Plant response rating, Blackgrass [17, 23]: 80
- Plant response rating, Galium [18, 22]: 40
- Plant response rating, Galium [18, 23]: 50
- Plant response rating, Kochia (Kochia (Kochia scoparia) [19]; [22]): 60
- Plant response rating, Kochia (Kochia (Kochia scoparia) [19]; [23]): 70

SMILES: O=C1NCC(c2cc(F)cc(C(F)(F)F)c2)C1C(=O)Nc1cccc(F)c1F (stereo not drawn) [Compound 488]
- Plant response rating, Rice (rice (Oryra sativa); 250 g ai/ha): 30
- Plant response rating, Sedge, Umbrella ([1]; 250 g ai/ha): 0
- Plant response rating, Barnyardgrass ([2]; 250 g ai/ha): 65
- Plant response rating, Ducksalad ([3]; 250 g ai/ha): 90
- Plant response rating (scale of 0 to 100), Waterhemp [4]: 25
- Plant response rating, Waterhemp ([4]; 62 g ai/ha): 40
- Plant response rating, Waterhemp ([4]; 125 g ai/ha): 75
- Plant response rating, Waterhemp ([4]; 250 g ai/ha): 80
- Plant response rating, Ryegrass, Italian [5, 20]: 30
- Ryegrass, Italian plant response rating (0 to 100 scale, 0 is no effect, 100 is complete control) [5, 24]: 70
- Plant response rating, Foxtail, Giant [6, 20]: 90
- Foxtail, Giant plant response rating (0 to 100 scale, 0 is no effect, 100 is complete control) [6, 24]: 90
- Plant response rating, Ragweed [7, 20]: 70
- Ragweed plant response rating (0 to 100 scale, 0 is no effect, 100 is complete control) [7, 24]: 80
- Plant response rating, Pigweed [8, 20]: 50
- Pigweed plant response rating (0 to 100 scale, 0 is no effect, 100 is complete control) [8, 24]: 70
- Plant response rating, Barnyardgrass [9, 20]: 90
- Barnyardgrass plant response rating (0 to 100 scale, 0 is no effect, 100 is complete control) [9, 24]: 90
- Plant response rating, Kochia (Kochia (Kochia scoparia) [10]; [20]): 70
- Kochia plant response rating (0 to 100 scale, 0 is no effect, 100 is complete control) (Kochia (Kochia scoparia) [10]; [24]): 70
- Ryegrass, Italian plant response rating [11, 25]: 30
- Plant response rating, Ryegrass, Italian [11, 26]: 60
- Foxtail, Giant plant response rating [12, 25]: 90
- Plant response rating, Foxtail, Giant [12, 26]: 90
- Ragweed plant response rating [13, 25]: 20
- Plant response rating, Ragweed [13, 26]: 20
- Corn plant response rating (corn (Zea mays); [25]): 70
- Plant response rating, Corn (corn (Zea mays); [26]): 80
- Pigweed plant response rating [14, 25]: 40
- Plant response rating, Pigweed [14, 26]: 50
- Wheat plant response rating [15, 25]: 50
- Plant response rating, Wheat [15, 26]: 60
- Barnyardgrass plant response rating [16, 25]: 90
- Plant response rating, Barnyardgrass [16, 26]: 90
- Blackgrass plant response rating [17, 25]: 60
- Plant response rating, Blackgrass [17, 26]: 70
- Galium plant response rating [18, 25]: 50
- Plant response rating, Galium [18, 26]: 50
- Kochia plant response rating (Kochia (Kochia scoparia) [19]; [25]): 30
- Plant response rating, Kochia (Kochia (Kochia scoparia) [19]; [26]): 60

SMILES: O=C1NCC(c2cccc(OC(F)(F)C(F)F)c2)C1C(=O)Nc1cccc(F)c1F (racemic) [Compound 697]
- Plant response rating, Rice (rice (Oryra sativa); 500 g ai/ha): 0
- Plant response rating, Sedge, Umbrella ([1]; 500 g ai/ha): 0
- Plant response rating, Barnyardgrass ([2]; 500 g ai/ha): 90
- Plant response rating, Ducksalad ([3]; 500 g ai/ha): 90
- Plant response rating (scale of 0 to 100), Waterhemp [4]: 80
- Plant response rating, Waterhemp ([4]; 62 g ai/ha): 80
- Plant response rating, Waterhemp ([4]; 125 g ai/ha): 85
- Plant response rating, Waterhemp ([4]; 250 g ai/ha): 85
- Plant response rating, Ryegrass, Italian [5, 27]: 40
- Plant response rating, Ryegrass, Italian [5, 21]: 50
- Plant response rating, Foxtail, Giant [6, 27]: 90
- Plant response rating, Foxtail, Giant [6, 21]: 90
- Plant response rating, Ragweed [7, 27]: 50
- Plant response rating, Ragweed [7, 21]: 60
- Plant response rating, Pigweed [8, 27]: 50
- Plant response rating, Pigweed [8, 21]: 50
- Plant response rating, Barnyardgrass [9, 27]: 90
- Plant response rating, Barnyardgrass [9, 21]: 90
- Plant response rating, Kochia (Kochia (Kochia scoparia) [10]; [27]): 30
- Plant response rating, Kochia (Kochia (Kochia scoparia) [10]; [21]): 80
- Plant response rating, Ryegrass, Italian [11, 28]: 20
- Plant response rating, Ryegrass, Italian [11, 23]: 30
- Plant response rating, Foxtail, Giant [12, 28]: 80
- Plant response rating, Foxtail, Giant [12, 23]: 80
- Plant response rating, Ragweed [13, 28]: 30
- Plant response rating, Ragweed [13, 23]: 50
- Plant response rating, Corn (corn (Zea mays); [28]): 70
- Plant response rating, Corn (corn (Zea mays); [23]): 80
- Plant response rating, Pigweed [14, 28]: 50
- Plant response rating, Pigweed [14, 23]: 50
- Plant response rating, Wheat [15, 28]: 20
- Plant response rating, Wheat [15, 23]: 40
- Plant response rating, Barnyardgrass [16, 28]: 80
- Plant response rating, Barnyardgrass [16, 23]: 90
- Plant response rating, Blackgrass [17, 28]: 30
- Plant response rating, Blackgrass [17, 23]: 40
- Plant response rating, Galium [18, 28]: 50
- Plant response rating, Galium [18, 23]: 50
- Plant response rating, Kochia (Kochia (Kochia scoparia) [19]; [28]): 60
- Plant response rating, Kochia (Kochia (Kochia scoparia) [19]; [23]): 60
